Source: BindingDB's records for patent US20250214942 (University ff Texas System, 2025)

Target: T1, Receptor-interacting serine/threonine-protein kinase 1 (Homo sapiens, UniProt Q13546)
T1 sequence (Q13546 whole entry): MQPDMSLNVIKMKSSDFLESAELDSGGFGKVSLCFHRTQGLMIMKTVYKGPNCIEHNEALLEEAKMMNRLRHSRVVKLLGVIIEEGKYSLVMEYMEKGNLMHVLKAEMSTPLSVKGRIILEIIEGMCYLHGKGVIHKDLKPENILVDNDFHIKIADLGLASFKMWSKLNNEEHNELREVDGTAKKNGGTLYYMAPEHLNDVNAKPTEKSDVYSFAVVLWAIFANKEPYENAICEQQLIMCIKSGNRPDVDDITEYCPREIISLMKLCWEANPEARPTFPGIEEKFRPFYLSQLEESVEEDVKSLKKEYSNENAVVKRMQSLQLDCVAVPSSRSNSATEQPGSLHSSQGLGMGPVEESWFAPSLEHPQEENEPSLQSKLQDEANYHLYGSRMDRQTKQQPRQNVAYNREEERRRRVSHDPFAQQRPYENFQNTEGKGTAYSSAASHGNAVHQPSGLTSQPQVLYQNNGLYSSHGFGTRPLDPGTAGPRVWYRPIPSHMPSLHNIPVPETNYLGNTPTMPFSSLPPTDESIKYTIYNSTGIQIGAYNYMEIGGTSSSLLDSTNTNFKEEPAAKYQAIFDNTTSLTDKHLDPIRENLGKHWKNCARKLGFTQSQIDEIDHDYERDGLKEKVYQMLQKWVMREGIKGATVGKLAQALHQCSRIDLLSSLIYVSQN
Experiment: ADP-Glo Kinase Assay
Procedure: In order to measure RIPK1 activity the ADP-Glo kinase assay (Promega, Catalog #V7002) was used to measure the conversion of ATP to ADP. […] Stock solutions of the test compounds were prepared in 100% DMSO (Sigma, Catalog #D2650) and serially diluted 1:3 using 100% DMSO. Compounds were additionally diluted 1:40 in assay buffer, and 2 μL/well were transferred to the assay plate. 4 μL/well (final concentration of 5 nM) of RIPK1 protein (SignalChem, Catalog #R07-1IG-05) diluted in assay buffer and added to the assay plate followed by a 10 minute preincutation at rt. 4 μL/well of ATP (Promega, Catalog #V7002) (final concentration of 50 μM) diluted in assay buffer were then added to the assay plate followed by a 6 h reaction time. Final concentrations of RIPK1 and ATP refer to a 10 μL volume. Luminescence was measured using a BioTek Synergy™ NEO plate reader. IC50 values were calculated using a four-parameter logistic curve fit using Genedata Screener software.

O=C(N1N=CCC1c1cc(F)cc(F)c1)C12CC(Cn3ncc4ncccc43)(C1)C2 (stereo unspecified) [US20250214942, Example 148]
IC50: 0.08 µM
